This note sets out measurements from patent US20150274639A1, “METHODS OF USE FOR COMPOSITIONS COMPRISING A BIOCIDAL POLYAMINE” (Curza Global, LLC, priority 2013, published 2015).

Values after ≈ are worked out from the molar mass of the structure shown. Values joined by “and” are separate entries in the source; they are usually repeats but may differ in a detail not shown here. Equal values may be shown once.

The subject of assay [1] is A. baumannii. Put plainly: MIC in CAMHB, 96-well plate (10^5 to 10^2 CFU/mL in 24 hours). Format: cell-based, Acinetobacter baumannii. The method, then:
To determine the MIC of polyamine compounds, the protocol described herein was used.
In brief, a 0.5 McFarland of each bacterial isolate was made. A 0.5 McFarland is a measure of turbidity in a liquid sample that contains approximately 1×10̂^8 CFU/mL. The 0.5 McFarland standard was diluted in cation adjusted Mueller Hinton Broth (CAMHB), and […], of broth were added to a well of a 96-well plate. In addition, 50 μL of CAMHB that contained a desired concentration of antimicrobial were also added to the well for a final volume of 100 and a final concentration of approximately 5×10^4 CFU/well (which equated to approximately 5×10^5 CFU/mL). Each well contained a desired amount of polyamine compound in order to experimentally determine the MIC. Each 96-well plate was incubated at 37° C. for 24 hours. The contents of each well were plated on tryptic soy agar (TSA). TSA plates were incubated for 37° C. for 24 hours after which the number of CFU were counted and used to calculate the CFU/mL that remained after exposure to varying concentrations of compound. This procedure was repeated n=8 times for each concentration of antimicrobial.
A 0.5 McFarland of A. baumannii is made. A 0.5 McFarland is a measure of turbidity in a liquid sample that contains approximately 7.5×10^7 CFU/mL. The 0.5 McFarland standard is diluted in CAMHB and 50 μL of broth is added to a well of a 96-well plate. In addition, 50 μL of CAMHB that contains a desired concentration of antimicrobial is added to the well for a final volume of 100 μL and a final concentration of approximately 5×10^4 CFU/well (which equates to approximately 5×10^5 CFU/mL). Each well contains a desired amount of CZ compound in order to experimentally determine the MIC. Each 96-well plate is incubated at 37° C. for 24 hours. The contents of each well is plated on tryptic soy agar (TSA). TSA plates is incubated at 37° C. for 24 hours after which the number of CFUs is counted and used to calculate the CFU/mL that remain after exposure to varying concentrations of compound. This procedure is repeated n=8 times for each concentration of antimicrobial. […]

Assay [2] has as its system P. aeruginosa biofilm. As to the kind of experiment: EBEC, high number biofilms on PEEK membranes (10^9 to 10^2 CFU/PEEK membrane in 24 hours). Format: cell-based. Conditions: Pseudomonas aeruginosa; Table 3B titled MICs; group head missing, values match EBEC. As for the experimental part: In addition to determining the MIC and the MBEC of polyamine compounds against planktonic bacteria and low number biofilms, our group wanted to determine the efficacy of polyamine compounds against high number biofilms. To do so, biofilms were grown on the surface of polyetheretherketone (PEEK) membranes using a membrane biofilm reactor. This reactor is similar to the CDC biofilm reactor, but rather than growing biofilms on coupon surfaces, the reactor was modified to hold PEEK membranes. In short, to grow biofilms within this system, 500 mL of brain heart infusion (BHI) broth were inoculated with 1 mL of a 0.5 McFarland. The reactor was placed on a hot plate set at 34° C. and the bacteria were grown under batch conditions for 24 hours. Following this protocol, biofilms typically grow to 10^9 CFU/PEEK membrane. […] A solution of 10% BHI was then flowed through the reactor at a rate of 6.94 mL/min for an additional 24 hours. PEEK membranes were then removed and placed into 2 mL of CAMHB that contained a desired concentration of polyamine compound or antibiotic. The EBEC was defined as the concentration of antimicrobial required to reduce a biofilm from approximately 10^9 CFU/PEEK membrane to approximately 10^2 CFU/PEEK membrane in a 24-hour period.

For assay [3], the system named is MRSA biofilm. The description is as above. Format: cell-based, methicillin-resistant Staphylococcus aureus. Conditions: Staphylococcus aureus, Table 3B titled MICs, group head missing, values match EBEC.
In assay [4] the test system is MRSA. As to the kind of experiment: MIC against MRSA as defined by CLSI (FIG. 25 series). To be noted: Staphylococcus aureus. It is filed as cell-based, methicillin-resistant Staphylococcus aureus. The method, then:
To determine the MIC of the polyamine chains alone and the synthesized compounds against MRSA and P. aeruginosa ATCC 27853, a modified protocol from the Clinical and Laboratory Standards Institute (CLSI) guideline M26-A was used. […] All data was collected using cation adjusted MHB for standardization.
As mentioned, MRSA and P. aeruginosa ATCC 27853 were grown on Columbia blood agar plates prior to experimentation. From the blood agar plates, a 0.5 McFarland standard was made of each isolate. This equated to approximately 5×10^7 cells/mL for the MRSA isolate and approximately 3×10^7 cells/mL for the P. aeruginosa ATCC 27853 isolate. Of the 0.5 McFarland stock solution, 50 μL were added to MHB. […] All tests were performed such that a final volume of 5 mL of MHB were obtained. This provided a final bacterial concentration of approximately 5×10^5 cells/mL.
Each sample was incubated in glass test tubes at 37° C. for 24 hours, then plated in duplicate on tryptic soy agar (TSA) using a 10-fold dilution series. TSA plates were further incubated 24 hours at 37° C. The number of colony forming units (CFU) that grew were counted in order to calculate the number of bacteria that were present per mL in the original MHB solution.

Assay [5] deals with P. aeruginosa biofilm. As to the kind of experiment: MBEC, MBEC Inoculation Tray by Innovotech (to 10^2 CFU/peg in 24 hours). Format: cell-based. Conditions: Pseudomonas aeruginosa; Table 3A titled MICs; group head missing, values match MBEC; read-out: MIC, P. aeruginosa (second P. aeruginosa). From the text: To determine the MBEC of each polyamine compound, the MBEC Inoculation Tray by Innovotech, formerly known as the Calgary biofilm device, was used. Within this device, biofilms grow on the surface of polystyrene pegs, 96 of which are attached to a lid. These pegs are inserted into a flat bottom 96-well plate. In this instance, the MBEC of a molecule was defined as the concentration of compound (in μg/mL) required to reduce 10^5 or 10^6 CFU/peg (biofilm levels varied by isolate) to 10^2 CFU/peg in a 24-hour period.
Following the manufacturer's guidelines, biofilms were grown on the surface of each peg by first making a 0.5 McFarland of each isolate. The 0.5 McFarland was diluted 1:100 in CAMHB. Into each well of a flat bottom 96-well plate, 150 μL of broth were pipetted. The plate was shaken at 100 rpm for 24 hours (P. aeruginosa and A. baumannii) or 48 hours (MRSA). The pegs were then placed into a separate flat bottom 96-well plate for 10 seconds with 200 μL of phosphate buffered saline (PBS) in each well to remove nonadherent cells. The lid was then placed into a 96-well plate that contained varying concentrations of antimicrobial with 200 μL per well. The plate was incubated for 24 hours at 37° C. after which time 100 μL of broth were plated on TSA. TSA plates were incubated 24 hours at 37° C. and the number of CFU counted to calculate the CFU/peg. […]

[6] abbreviates: Acinetobacter baumannii, Table 3A.
Setting [7] is: Acinetobacter baumannii, Table 4.

For the compound `NCCCNCCCNCc1cccc(CNCCCNCCCN)c1` [CZ-25], the MIC in assay [1] (setting [6]) is 150 µg/mL; in assay [1] (setting [7]) it was 150 µg/mL and 411 µM; in assay [2], more than 5000 µg/mL; in assay [3], more than 5000 µg/mL; in assay [4], 45 µg/mL (≈ 123 µM); in assay [5] it was more than 500 µg/mL.
Turning to `NCCCNCCCNCc1cc(CNCCCNCCCN)cc(CNCCCNCCCN)c1` [CZ-52], the MIC was approximately 25 µg/mL in assay [1] (setting [6]); 400 µg/mL and 800 µM in assay [1] (setting [7]); more than 5000 µg/mL in assay [2]; 250 µg/mL (≈ 492 µM) in assay [3]; 3 µg/mL (≈ 5.91 µM) in assay [4]; 400 µg/mL (≈ 788 µM) in assay [5].
Consider `NCCCNCCCNCc1cc(CNCCCNCCCN)cc(-c2ccccc2)c1` [CZ-58], for which the MIC in assay [1] (setting [7]) is 30 µg/mL and 68 µM.
On to “Polymyxin B sulfate [reference compound]”, for which the entries for the “MIC, A. baumannii” value in assay [1] (Table 3A) and in assay [1] (Table 4) were 2 µg/mL and 1 µg/mL, respectively. In addition, the MIC in assay [1] (Table 4) is 0.7 µM.
